Measurements taken from patent publication US9624214B2, “Amino-substituted imidazo[1,2-a]pyridinecarboxamides and their use” (BAYER PHARMA AKTIENGESELLSCHAFT, priority 2012, dated 2017).
Counter-ions that a name gives are not always drawn.

What follows are compounds tested against T1, recombinant guanylate cyclase reporter cell line (Rattus norvegicus, UniProt P19686+P20595) (assay: B-2. Action on recombinant guanylate cyclase reporter cell line). Settings: MEC = minimal effective concentration; in some cases mean values from individual determinations.
T1 construct: expressed in transfected cells
T1 sequence (P20595 1-619): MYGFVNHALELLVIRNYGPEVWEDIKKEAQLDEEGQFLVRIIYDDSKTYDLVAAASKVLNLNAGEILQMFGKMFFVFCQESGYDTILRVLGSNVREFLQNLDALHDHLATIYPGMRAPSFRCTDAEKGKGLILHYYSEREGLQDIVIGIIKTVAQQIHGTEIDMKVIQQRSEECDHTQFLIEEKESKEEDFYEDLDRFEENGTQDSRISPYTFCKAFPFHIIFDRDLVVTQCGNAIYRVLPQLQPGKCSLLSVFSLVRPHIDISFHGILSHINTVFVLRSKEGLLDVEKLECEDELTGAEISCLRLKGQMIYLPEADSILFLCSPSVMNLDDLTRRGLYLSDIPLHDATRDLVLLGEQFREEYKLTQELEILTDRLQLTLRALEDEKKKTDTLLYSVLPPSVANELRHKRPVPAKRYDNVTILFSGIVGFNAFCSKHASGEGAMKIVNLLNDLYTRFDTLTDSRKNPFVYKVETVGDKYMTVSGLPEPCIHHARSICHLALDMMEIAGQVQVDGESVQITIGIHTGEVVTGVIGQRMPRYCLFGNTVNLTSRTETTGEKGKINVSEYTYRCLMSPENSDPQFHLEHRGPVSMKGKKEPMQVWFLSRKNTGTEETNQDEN
T1 sequence (P19686 1-690): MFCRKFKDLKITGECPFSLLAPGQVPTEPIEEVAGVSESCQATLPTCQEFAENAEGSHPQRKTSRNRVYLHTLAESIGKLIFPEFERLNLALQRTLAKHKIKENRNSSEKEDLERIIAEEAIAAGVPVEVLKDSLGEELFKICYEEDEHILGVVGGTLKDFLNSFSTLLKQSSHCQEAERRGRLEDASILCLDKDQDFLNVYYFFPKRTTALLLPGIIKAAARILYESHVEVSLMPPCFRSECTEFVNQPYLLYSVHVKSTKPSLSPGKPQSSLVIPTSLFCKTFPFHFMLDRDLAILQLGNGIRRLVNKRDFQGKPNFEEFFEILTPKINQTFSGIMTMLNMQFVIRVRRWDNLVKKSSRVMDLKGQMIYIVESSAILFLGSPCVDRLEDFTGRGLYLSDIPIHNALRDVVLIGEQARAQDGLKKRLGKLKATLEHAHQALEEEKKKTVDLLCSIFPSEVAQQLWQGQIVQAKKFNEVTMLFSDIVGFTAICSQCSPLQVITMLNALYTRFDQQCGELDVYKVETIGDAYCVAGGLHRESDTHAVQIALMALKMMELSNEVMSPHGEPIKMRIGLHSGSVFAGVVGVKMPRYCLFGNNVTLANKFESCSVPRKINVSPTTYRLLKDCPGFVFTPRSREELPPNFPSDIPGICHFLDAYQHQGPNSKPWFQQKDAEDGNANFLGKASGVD
Type: cell-based
In short: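 Cellular activity was measured in a reporter cell line expressing recombinant guanylate cyclase. Values are given as MEC, the minimal effective concentration, and some are means of individual determinations.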

SMILES | MEC [µM]
Cc1nc2c(OCc3c(F)cccc3F)cccn2c1C(=O)NC12CNCCC1C2 (single isomer, unassigned) [Example 184, ent-N-(3-Azabicyclo[4.1.0]hept-1-yl)-8-[(2,6-difluorobenzyl)oxy]-2-methylimidazo[1,2-a]pyridine-3-carboxamide] | 1.00
Cc1nc2c(OCc3c(F)cccc3F)cccn2c1C(=O)NCC(C)CN (single isomer, unassigned) [Example 95, ent-N-(3-Amino-2-methylpropyl)-8-[(2,6-difluorobenzyl)oxy]-2-methylimidazo[1,2-a]pyridine-3-carboxamide Dihydrochloride] | 1.00
Cc1cc(OCc2c(F)cccc2F)c2nc(C)c(C(=O)NCC3(N)CC3)n2c1 [Example 40, N-[(1-aminocyclopropyl)methyl]-8-[(2,6-difluorobenzyl)oxy]-2,6-dimethylimidazo[1,2-a]-pyridine-3-carboxamide] | 0.10
Cc1nc2c(OCc3c(F)cccc3F)cccn2c1C(=O)NC1CCNc2ccccc21 (single isomer, unassigned; ent-8) [Example 52, ent-8-[(2,6-Difluorobenzyl)oxy]-2-methyl-N-(1,2,3,4-tetrahydroquinolin-4-yl)imidazo[1,2-a]-pyridine-3-carboxamide] | 0.03
Cc1cc(OCc2c(F)cccc2F)c2nc(C)c(C(=O)NCC3(N)CCC3)n2c1 [Example 165, N-[(1-aminocyclobutyl)methyl]-8-[(2,6-difluorobenzyl)oxy]-2,6-dimethylimidazo[1,2-a]-pyridine-3-carboxamide] | 0.10
Cc1nc2c(OCc3c(F)cccc3F)cccn2c1C(=O)N[C@H]1CCNC1 [Example 61, 8-[(2,6-Difluorobenzyl)oxy]-2-methyl-N-[(3S)-pyrrolidin-3-yl]imidazo[1,2-a]pyridine-3-carboxamide] | 3.00
Cc1nc2c(OCC3CCCCC3)cccn2c1C(=O)NC(CN)c1ccc(F)cc1F (stereo not drawn) [Example 45, ent-N-[2-Amino-1-(2,4-difluorophenyl)ethyl]-8-(cyclohexylmethoxy)-2-methylimidazo[1,2-a]-pyridine-3-carboxamide] | 1.00
Cc1nc2c(OCc3c(F)cccc3F)cccn2c1C(=O)NC1CC2CCC(C1)N2C (stereo not drawn) [Example 91, 8-[(2,6-difluorobenzyl)oxy]-2-methyl-N-(8-methyl-8-azabicyclo[3.2.1]oct-3-yl)imidazo[1,2-a]pyridine-3-carboxamide] | 1.00
Cc1nc2c(OCc3c(F)cccc3F)cccn2c1C(=O)NC(CN)COc1ccccc1 (racemic) [Example 59, rac-N-(1-amino-3-phenoxypropan-2-yl)-8-[(2,6-difluorobenzyl)oxy]-2-methylimidazo[1,2-a]-pyridine-3-carboxamide dihydrochloride] | 3.00
Cc1nc2c(OCc3c(F)cccc3F)cccn2c1C(=O)N[C@H]1CCCNC1 [Example 60, 8-[(2,6-difluorobenzyl)oxy]-2-methyl-N-[(3S)-piperidin-3-yl]imidazo[1,2-a]pyridine-3-carboxamide dihydrochloride] | 0.30
COCC(C)(N)CNC(=O)c1c(C)nc2c(OCc3c(F)cccc3F)cc(C)cn12 (single isomer, unassigned) [Example 198, ent-N-(2-Amino-3-methoxy-2-methylpropyl)-8-[(2,6-difluorobenzyl)oxy]-2,6-dimethylimidazo-[1,2-a]pyridine-3-carboxamide] | 0.30
Cc1nc2c(OCc3c(F)cccc3F)cccn2c1C(=O)NCCN1CCS(=O)(=O)CC1 [Example 131, 8-[(2,6-difluorobenzyl)oxy]-N-[2-(1,1-dioxidothiomorpholin-4-yl)ethyl]-2-methylimidazo[1,2-a]pyridine-3-carboxamide] | 3.00
Cc1nc2c(OCc3c(F)cccc3F)cccn2c1C(=O)NC(CN)c1ccc(F)c(F)c1 (single isomer, unassigned; enantiomer a) [Example 12, ent-N-[2-Amino-1-(3,4-difluorophenyl)ethyl]-8-[(2,6-difluorobenzyl)oxy]-2-methylimidazo[1,2-a]-pyridine-3-carboxamide (Enantiomer A)] | 1.00
COCC(C)(N)CNC(=O)c1c(C)nc2c(OCc3c(F)cccc3F)cc(Cl)cn12 (racemic) [Example 159, rac-N-(2-amino-3-methoxy-2-methylpropyl)-6-chloro-8-[(2,6-difluorobenzyl)oxy]-2-methylimidazo[1,2-a]pyridine-3-carboxamide] | 0.30

The next lines start with the values.

MEC [µM] | SMILES
0.65 | CCCC(C)(N)CNC(=O)c1c(C)nc2c(OCc3c(F)cccc3F)cc(N3CCOCC3)cn12 (single isomer, unassigned; enantiomer b) [Example 280, ent-N-(2-amino-2-methylpentyl)-8-[(2,6-difluorobenzyl)oxy]-2-methyl-6-(morpholin-4-yl)imidazo[1,2-a]pyridine-3-carboxamide (Enantiomer B)]
1.00 | COc1cccc(C(N)CNC(=O)c2c(C)nc3c(OCc4c(F)cccc4F)cc(C)cn23)c1 (racemic) [Example 378, rac-N-[2-amino-2-(3-methoxyphenyl)ethyl]-8-[(2,6-difluorobenzyl)oxy]-2,6-dimethylimidazo[1,2-a]pyridine-3-carboxamide]
1.00 | CCCC(C)(N)CNC(=O)c1c(C)nc2c(OCc3ccccc3)cc(C)cn12 (racemic) [Example 340, rac-N-(2-amino-2-methylpentyl)-8-(benzyloxy)-2,6-dimethylimidazo[1,2-a]pyridine-3-carboxamide]
1.00 | Cc1nc2c(OCc3c(F)cccc3F)cc(Cl)cn2c1C(=O)NCC(C)(N)C(F)(F)F (single isomer, unassigned) [Example 238, ent-N-(2-Amino-3,3,3-trifluoro-2-methylpropyl)-6-chloro-8-[(2,6-difluorobenzyl)oxy]-2-methylimidazo[1,2-a]pyridine-3-carboxamide]
0.10 | Cc1cc(OCc2c(F)cccc2F)c2nc(C)c(C(=O)NCC(C)(N)Cc3ccccn3)n2c1 (racemic) [Example 297, rac-N-[2-amino-2-methyl-3-(pyridin-2-yl)propyl]-8-[(2,6-difluorobenzyl)oxy]-2,6-dimethylimidazo[1,2-a]pyridine-3-carboxamide]
0.30 | Cc1cc(OCc2c(F)cccc2F)c2nc(C)c(C(=O)NCC(C)(N)CC(C)C)n2c1 (single isomer, unassigned) [Example 219, ent-N-(2-Amino-2,4-dimethylpentyl)-8-[(2,6-difluorobenzyl)oxy]-2,6-dimethylimidazo[1,2-a]-pyridine-3-carboxamide]
0.3 | CCCC(C)(N)CNC(=O)c1c(C)nc2c(OCc3c(F)cccc3F)cc(C3CC3)cn12 (single isomer, unassigned; enantiomer b) [Example 281, ent-N-(2-amino-2-methylpentyl)-6-cyclopropyl-8-[(2,6-difluorobenzyl)oxy]-2-methylimidazo[1,2-a]pyridine-3-carboxamide (Enantiomer B)]
0.30 | Cc1cc(OCc2c(F)cccc2F)c2nc(C)c(C(=O)NC3(C)CCC3(C)N)n2c1 (racemic) [Example 335, rac-N-[2-amino-1,2-dimethylcyclobutyl]-8-[(2,6-difluorobenzyl)oxy]-2,6-dimethylimidazo[1,2-a]pyridine-3-carboxamide]
0.03 | CCC(C)(N)CNC(=O)c1c(C)nc2c(OCc3c(F)cccc3F)cc(C)cn12.Cl (single isomer, unassigned; enantiomer a) [Example 357, ent-N-(2-amino-2-methylbutyl)-8-[(2,6-difluorobenzyl)oxy]-2,6-dimethylimidazo[1,2-a]pyridine-3-carboxamide Hydrochloride (Enantiomer A)]
0.30 | Cc1cc(OCc2c(F)cccc2F)c2nc(C)c(C(=O)NC(CN)c3cccc(C(F)(F)F)c3)n2c1 (racemic) [Example 394, rac-N-{2-amino-1-[3-(trifluoromethyl)phenyl]ethyl}-8-[(2,6-difluorobenzyl)oxy]-2,6-dimethylimidazo[1,2-a]pyridine-3-carboxamide]
